Assays:
Assay type in all cases: cell-based
[1] = tested on: PGC-1α; assay: PGC-1α protein expression by Western blot in target cells
Protocol: (§1) Target cells (endothelial cells, C2C12 skeletal muscle cells, etc.) are obtained according to conventional methods in the art.
(§2) The target cells (endothelial cells, C2C12 skeletal muscle cells, etc.) are divided into groups A, B, C and D. B and D group cells were cultured with 50 μM L-Ergothioneine for 12 hours, and A and C groups were not cultured with Ergothioneine but only with the usual nutrient solution for 12 hours. Then a certain concentration of H2O2 was used to cause C and D group cells damage, no H2O2 was used on A and B groups. Then PGC-1α protein expression and Sirt1 protein level were analyzed by Western blot.

[2] = tested on: Sirt1; assay: Sirt1 protein level by Western blot in target cells
Protocol: as §1, §2

[3] = tested on: target cells (endothelial cells, C2C12 skeletal muscle cells, etc.); assay: Mitochondrial biogenesis in vitro: mitochondrial mass (flow cytometry, fluorescent microscopy) and mtDNA copy number (quantitative PCR)
Protocol: as §1
as §2, with “were” for “are”, “hours.” for “hours, and”, “Mitochondrial biogenesis was measured by quantifying both mitochondrial mass” for “Then PGC-1α protein expression”, “mitochondrial DNA (mtDNA) contents. Mitochondrial mass was measured by flow cytometry and fluorescent microscopy, mtDNA copy number was” for “Sirt1 protein level were”, “quantitative PCR.” for “Western blot.”

[4] = group B: 50 μM L-Ergothioneine for 12 hours, no H2O2, untreated group A = 100

C[N+](C)(C)[C@@H](Cc1c[nH]c(=S)[nH]1)C(=O)[O-] [L-Ergothioneine]
PGC-1α level (Western blot) ([1]; group B: 50 μM L-Ergothioneine for 12 hours, no H2O2, untreated group A about 0.0046): ~0.005 | PGC-1α level (Western blot) ([1]; group D: 50 μM L-Ergothioneine for 12 hours, then H2O2 damage, H2O2-only group C about 0.0036): ~0.0043 | Sirt1 level (Western blot) ([2]; group B: 50 μM L-Ergothioneine for 12 hours, no H2O2, untreated group A about 0.79): ~0.85 | Sirt1 level (Western blot) ([2]; group D: 50 μM L-Ergothioneine for 12 hours, then H2O2 damage, H2O2-only group C about 0.65): ~0.75 | Relative mitochondrial mass [3, 4]: 112% | Relative mtDNA content [3, 4]: 118% | Relative mitochondrial mass ([3]; group D: 50 μM L-Ergothioneine for 12 hours, then H2O2 damage, H2O2-only group C = 78): 90% | Relative mtDNA content ([3]; group D: 50 μM L-Ergothioneine for 12 hours, then H2O2 damage, H2O2-only group C = 89): 93%

— US20240189285A1, “COMPOSITION AND METHOD FOR ENHANCING MITOCHONDRIAL BIOGENESIS AND ACTIVATING PGC-1A” (NANJING NUTRABUILDING BIO-TECH CO., LTD., priority 2021, published 2024)
